For eleven compounds, GI50 and TGI results are on record in PubChem BioAssay (NCI).

Molecules are shown by their SMILES.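 Cultured in 96-well plates, cells were exposed to test compound for 48 hours across five concentrations. At the GI50, growth is halved. TGI: total growth inhibition.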

Test systems include CCRF-CEM leukemia; HCT-116 colon; HL-60(TB) leukemia; MCF7 breast; NCI-H522 lung; OVCAR-5 ovarian; RPMI-8226 leukemia; RXF 393 renal; SW-620 colon; UACC-257 melanoma.
What all share (experiment): growth of human tumour cells (NCI), 48 h

Consider `C[C@@H]1C[C@@H]([C@@H](CC2CC(=O)NC(=O)C2)OC(=O)CC(=O)c2ccccc2)C(=O)[C@@H](C)C1`, for which the GI50 in the assay on CCRF-CEM leukemia was 0.466 µM; in the assay with HCT-116 colon, 0.489 µM; with HL-60(TB) leukemia, 0.402 µM; in the assay on MCF7 breast it was 0.645 µM; with NCI-H522 lung, 0.191 µM; in the assay on OVCAR-5 ovarian it was 0.662 µM. Also, the GI50 in the assay on RPMI-8226 leukemia was 4.03 µM; in the assay with RXF 393 renal, 0.496 µM; in the assay with SW-620 colon it was 0.512 µM; in the assay with UACC-257 melanoma, 0.358 µM. The TGI with CCRF-CEM leukemia is more than 85.5 µM; in the assay on HCT-116 colon it was more than 45.2 µM; in the assay on HL-60(TB) leukemia it was more than 100 µM; in the assay with MCF7 breast, more than 100 µM; in the assay on NCI-H522 lung it was 4.32 µM; in the assay with OVCAR-5 ovarian, more than 100 µM. The TGI with RPMI-8226 leukemia was more than 100 µM; with RXF 393 renal, 25.1 µM; with SW-620 colon it was more than 43.1 µM; with UACC-257 melanoma it was 13 µM.

As to `S=c1[nH]c(=S)c2cc3ccccc3nc2[nH]1`, the GI50 with CCRF-CEM leukemia was 5.21 µM; with HCT-116 colon, 69.8 µM; with HL-60(TB) leukemia it was 38 µM; with MCF7 breast, 5.33 µM; with NCI-H522 lung, 20.5 µM; with OVCAR-5 ovarian it was more than 100 µM. For the same compound, the GI50 in the assay with RPMI-8226 leukemia was 7.96 µM; in the assay on RXF 393 renal, more than 100 µM; in the assay on SW-620 colon, 26.8 µM; in the assay on UACC-257 melanoma, more than 100 µM. Moreover, the TGI in the assay on CCRF-CEM leukemia was more than 100 µM; with HCT-116 colon it was more than 100 µM; in the assay on HL-60(TB) leukemia, more than 100 µM; with MCF7 breast, more than 100 µM; with NCI-H522 lung it was 51.7 µM; with OVCAR-5 ovarian, more than 100 µM. Moreover, the TGI in the assay with RPMI-8226 leukemia, with RXF 393 renal, in the assay with SW-620 colon and in the assay with UACC-257 melanoma was more than 100 µM each time.

For the compound `N#C/C(=C\c1ccc2ccccc2c1)C(=O)c1ccccc1`, the TGI in the assay with CCRF-CEM leukemia is 63.7 µM; with HCT-116 colon it was more than 80.4 µM; with HL-60(TB) leukemia, 71.9 µM; in the assay on MCF7 breast it was more than 100 µM; in the assay with NCI-H522 lung it was more than 100 µM; in the assay on OVCAR-5 ovarian, more than 100 µM. Also, the TGI with RPMI-8226 leukemia was 97.8 µM; in the assay with RXF 393 renal it was more than 55.4 µM; in the assay on SW-620 colon, more than 81.4 µM; in the assay on UACC-257 melanoma, more than 100 µM.

As for `CCn1c(O)c(/C=N/NC(=O)C(C)c2ccc(CC(C)C)cc2)sc1=S` (stereo not given), the GI50 with CCRF-CEM leukemia is 0.23 µM; with HCT-116 colon, 0.397 µM; in the assay on HL-60(TB) leukemia it was 0.312 µM; with MCF7 breast, 0.346 µM; in the assay with NCI-H522 lung, 0.277 µM; in the assay with OVCAR-5 ovarian, 0.619 µM. The GI50 in the assay with RPMI-8226 leukemia is 0.425 µM; with RXF 393 renal it was 0.222 µM; in the assay with SW-620 colon, 0.394 µM; in the assay with UACC-257 melanoma it was 3.16 µM. In addition, the TGI in the assay with CCRF-CEM leukemia was more than 100 µM; with HCT-116 colon it was more than 36.9 µM; in the assay on HL-60(TB) leukemia it was 1.52 µM; with MCF7 breast, more than 35.1 µM; in the assay with NCI-H522 lung it was 5.58 µM; in the assay with OVCAR-5 ovarian, more than 44.7 µM. In addition, the TGI in the assay with RPMI-8226 leukemia is 4.83 µM; in the assay with RXF 393 renal, 0.654 µM; in the assay with SW-620 colon, more than 40.9 µM; in the assay on UACC-257 melanoma, more than 74.9 µM.

Take `CC1CC2CCCC(O)=C2C(=O)O1` (stereo not given): the TGI in the assay with CCRF-CEM leukemia, in the assay with HCT-116 colon, in the assay on HL-60(TB) leukemia, in the assay on MCF7 breast, in the assay on NCI-H522 lung and in the assay on OVCAR-5 ovarian was more than 100 µM throughout. Moreover, the TGI in the assay on RPMI-8226 leukemia, in the assay on RXF 393 renal, with SW-620 colon and in the assay with UACC-257 melanoma was more than 100 µM throughout.

As for `CN1CCN(c2ccc(Nc3cc(-c4cccc(-n5ccc6cc(C7CC7)cc(F)c6c5=O)c4CO)cn(C)c3=O)nc2)CC1`, the GI50 in the assay on CCRF-CEM leukemia is 2.19 µM; in the assay with HCT-116 colon it was 3.31 µM; in the assay with HL-60(TB) leukemia it was 2.21 µM; in the assay on MCF7 breast it was 3.24 µM; in the assay with NCI-H522 lung, 4.33 µM; in the assay on OVCAR-5 ovarian it was 2.82 µM. Moreover, the GI50 with RPMI-8226 leukemia was 3.8 µM; in the assay on RXF 393 renal, 1.9 µM; in the assay on SW-620 colon, 4.74 µM; with UACC-257 melanoma, 2.28 µM. The TGI with CCRF-CEM leukemia was 7.73 µM; with HCT-116 colon, 18.9 µM; in the assay with HL-60(TB) leukemia, 4.4 µM; in the assay on MCF7 breast it was 18.6 µM; in the assay with NCI-H522 lung, 21 µM; in the assay with OVCAR-5 ovarian it was 9.75 µM. The TGI in the assay on RPMI-8226 leukemia amounted to 19 µM; with RXF 393 renal, 5.37 µM; with SW-620 colon, 23.9 µM; with UACC-257 melanoma, 5.03 µM.

With `CC(NCCC(c1ccccc1)c1ccccc1)c1ccccc1` (stereo not given), the GI50 in the assay with CCRF-CEM leukemia was 2.38 µM; in the assay on HCT-116 colon, 1.66 µM; with HL-60(TB) leukemia it was 2.13 µM; with MCF7 breast it was 1.8 µM; in the assay on NCI-H522 lung it was 1.81 µM; in the assay on OVCAR-5 ovarian, 2.88 µM. Besides, the GI50 in the assay with RPMI-8226 leukemia is 1.92 µM; in the assay on RXF 393 renal, 1.46 µM; in the assay on SW-620 colon it was 1.71 µM; in the assay with UACC-257 melanoma it was 1.65 µM. The TGI was determined as 8.73 µM in the assay on CCRF-CEM leukemia; 3.08 µM in the assay on HCT-116 colon; 4.19 µM in the assay on HL-60(TB) leukemia; 3.63 µM with MCF7 breast; 3.48 µM with NCI-H522 lung; 11.4 µM in the assay with OVCAR-5 ovarian. For the same compound, the TGI in the assay with RPMI-8226 leukemia is 4.83 µM; in the assay on RXF 393 renal, 3.23 µM; in the assay on SW-620 colon, 3.42 µM; in the assay on UACC-257 melanoma it was 4.02 µM.

Regarding `NC1CCN(Cc2ccccc2)CC1`, the GI50 with CCRF-CEM leukemia, in the assay with HCT-116 colon, in the assay on HL-60(TB) leukemia, with MCF7 breast, in the assay with NCI-H522 lung and in the assay with OVCAR-5 ovarian was more than 100 µM each time. Further, the GI50 with RPMI-8226 leukemia was more than 100 µM; with RXF 393 renal, 8.22 µM; with SW-620 colon it was more than 100 µM; with UACC-257 melanoma it was more than 100 µM. Moreover, the TGI in the assay with CCRF-CEM leukemia, in the assay with HCT-116 colon, with HL-60(TB) leukemia, in the assay on MCF7 breast, with NCI-H522 lung and with OVCAR-5 ovarian was more than 100 µM throughout. The TGI in the assay with RPMI-8226 leukemia, in the assay with RXF 393 renal, in the assay with SW-620 colon and with UACC-257 melanoma was more than 100 µM each time.

`N=c1c2c(-c3ccccc3)c(-c3ccccc3)n(Cc3ccccc3)c2ncn1C1CCC(O)CC1` (stereo not given): the GI50 with CCRF-CEM leukemia was 0.321 µM; in the assay on HCT-116 colon, 0.0446 µM; in the assay with HL-60(TB) leukemia it was 1.19 µM; in the assay with MCF7 breast, 0.278 µM; in the assay on NCI-H522 lung it was 0.576 µM; with OVCAR-5 ovarian, 5.84 µM. For the same compound, the GI50 was 0.318 µM in the assay on RPMI-8226 leukemia, 0.374 µM with RXF 393 renal, 0.0497 µM in the assay on SW-620 colon and 0.469 µM in the assay on UACC-257 melanoma. The TGI was found to be 9.25 µM with CCRF-CEM leukemia; 1.75 µM in the assay with HCT-116 colon; 3.66 µM in the assay with HL-60(TB) leukemia; 2.36 µM in the assay on MCF7 breast; 5.61 µM in the assay on NCI-H522 lung; 22.4 µM in the assay on OVCAR-5 ovarian. In addition, the TGI turned out to be 4.12 µM in the assay with RPMI-8226 leukemia, 2.4 µM in the assay on RXF 393 renal, 12.9 µM with SW-620 colon and 1.91 µM in the assay on UACC-257 melanoma.

On to `O=C(/C=C/c1ccc[nH]1)c1ccc(-n2ccc(C(F)(F)F)n2)cc1`, for which the GI50 is 1.06 µM in the assay with CCRF-CEM leukemia; more than 100 µM with HCT-116 colon; 0.307 µM in the assay on HL-60(TB) leukemia; more than 82.2 µM in the assay on MCF7 breast; 4.08 µM with NCI-H522 lung; more than 100 µM in the assay on OVCAR-5 ovarian. In addition, the GI50 was 0.436 µM with RPMI-8226 leukemia, 3.61 µM with RXF 393 renal, more than 100 µM in the assay with SW-620 colon and more than 100 µM in the assay with UACC-257 melanoma. Moreover, the TGI was more than 100 µM in the assay on CCRF-CEM leukemia; more than 100 µM in the assay with HCT-116 colon; 4.12 µM in the assay on HL-60(TB) leukemia; more than 100 µM in the assay with MCF7 breast; more than 100 µM with NCI-H522 lung; more than 100 µM in the assay with OVCAR-5 ovarian. Besides, the TGI in the assay on RPMI-8226 leukemia is 8.15 µM; in the assay with RXF 393 renal it was more than 31.2 µM; in the assay with SW-620 colon, more than 100 µM; in the assay on UACC-257 melanoma, more than 100 µM.

As to `CC1(C)OC2C(CO[Si](C)(C)C(C)(C)C)OC(n3c(I)c(C#C[Si](C)(C)C)c(=O)[nH]c3=O)C2O1` (stereo not given), the GI50 in the assay with CCRF-CEM leukemia was 2.67 µM; in the assay with HCT-116 colon, 1.66 µM; with HL-60(TB) leukemia, 2.35 µM; in the assay on MCF7 breast, 11.2 µM; with NCI-H522 lung, 1.38 µM; in the assay with OVCAR-5 ovarian it was 18.7 µM. Further, the GI50 in the assay with RPMI-8226 leukemia was 2.4 µM; with RXF 393 renal, 2.51 µM; in the assay with SW-620 colon, 1.69 µM; in the assay with UACC-257 melanoma, 13.3 µM. Further, the TGI was determined as 11 µM with CCRF-CEM leukemia; 3.37 µM in the assay with HCT-116 colon; 15.2 µM in the assay with HL-60(TB) leukemia; 24.3 µM with MCF7 breast; 2.74 µM in the assay on NCI-H522 lung; 42.8 µM in the assay with OVCAR-5 ovarian. The TGI was 8.6 µM in the assay on RPMI-8226 leukemia, 9.1 µM with RXF 393 renal, 3.21 µM with SW-620 colon and 30.1 µM with UACC-257 melanoma.
